Experimental data taken from patent EP0232423A1, “CIRCULATION IMPROVING AGENT” (GRELAN PHARMACEUTICAL CO., LTD., priority 1985, dated 1987).
Structures can show the parent of a compound that is named as a salt.

Key:
[1] = test system: isolated femoral artery; assay: Relaxation of isolated femoral artery contracted by 50 mM KCl; format: cell-based, Mongrel dogs; details: Canis lupus familiaris, 50 mM KCl contraction
Protocol: Mongrel dogs of either sex (body weight 10-17 kg) were killed by bleeding under anesthetization with pentobarbital sodium (tradename: Nembutai ® Abbott Co., USA). Thereafter, the basilar and femoral arteries were extracted and attached blood and connective tissues were carefully removed in a dish filled with Krebs bicarbonate solution (composition: NaCl 117.7 mM, KC1 4.7 mM, CaCl2 2.5 mM, MgSo4 1.2 mM, glucose 10 mM, NaHCO3 24.4 mM). Thereafter, ring preparations were made therefrom. This preparation was suspended in a bathing tube of 10 ml filled with Krebs bicarbonate solution aerated with 95 % 02 and 5 % C02.
Then, samples of basilar and femoral arteries were contracted by application of 50 mM KC1. After confirming that the contraction was sustained, (a) compound (I) (erythro form) lactate, (b) compound (I) (threo form) lactate and (c) ifenprodil; [2-(4-benzyl- piperidino-l-(4-hydroxyphenyl)propane-l-ol] tartrate were, respectively, administered as test compounds and the dose-relaxation response was examined.
A strain gauge transducer (model SB-lT manufactured by Nihon Koden Co.) was employed for recording of change of tension and isometric contraction was recorded on a recorder (model QPD 53 made by Hitachi Ltd . ) .

[2] = test system: isolated femoral artery; assay: Ca antagonistic action: Ca-induced contraction in K-depolarized femoral artery; format: cell-based, Mongrel dogs; details: Canis lupus familiaris, 0.25 h, 50 mM KCl, Ca-free bath, cumulative CaCl2, compound applied 15 minutes before, read-out: pA2 values on Ca-induced contraction in depolarized muscle by K (converted)
Protocol: The same measurements as in Test Example 2 were carried out using the isolated basilar artery and isolated femoral artery treated in accordance with the method of Test Example 2.
For examination of the Ca antagonistic action, the depolarization of both isolated arteries was induced with 50 mM KC1 in a bathing solution from which Ca had been removed and then CaCl2 was cumulatively applied thereto. As test compounds, (a) compound (I) (erythro form) lactate and (b) ifenprodil tartrate were applied at 15 minutes before addition of CaCl2.

[3] = test system: mice; assay: Protective action on death caused by endotoxin shock; format: in vivo; details: for Number of survival after administration of endotoxin: of 15 (Compound (I)) or 14 (ifenprodil) animals
Description: Compound (I) and ifenprodil tartrate were orally administered to mice and the protective action on death due to endotoxin shock was examined in accordance with a known method (Folia pharmacol. japon, vol. 86, page 17, 1985). The control group was drug-untreated.

[4] = test system: α2-adrenoceptor; assay: Antagonism of clonidine (α2-agonist) contraction in saphenous vein; format: cell-based, Mongrel dogs; details: α2 - agonist: clonidine, competitive antagonism, 15 min
Description: In this experiment, phenylephrine and clonidine were used as al-agonist and a2-agonist, respectively, and these agonists were cumulatively applied to obtain a dose-response curve.

For CC(C(O)c1ccc(O)cc1)N1CCC(Cc2ccccc2)CC1 (stereo not shown) [Ifenprodil tartrate], the inhibition at 50 µM ([1]; 5 x 10^-5 M, mean, n = 4 - 5) was 49.8%, the inhibition at 100 µM ([1]; 10^-4 M, mean, n = 4 - 5) was 75.9% and the inhibition at 10 µM ([1]; 10^-5 M, mean, n = 4 - 5) was 2.8%. It also gave an inhibition at 1 µM ([1]; 10^-6 M, mean, n = 4 - 5) of 0%, an inhibition at 0.1 µM ([1]; 10^-7 M, mean, n = 4 - 5) of 0% and an EC50 ([1]; relaxation of isolated femoral artery, read-out: ED50 (the source's name)) of 52 µM. The Kb [2] was 29.5 µM, the “Number of survival after administration of endotoxin” value (shortened to “Number of survival”) ([3]; 70 mg/kg oral, 18 hr) was 11 and the “Number of survival” value ([3]; 70 mg/kg oral, 20 hr) was 9. The “Number of survival” value ([3]; 70 mg/kg oral, 22 hr) was 6, the “Number of survival” value ([3]; 70 mg/kg oral, 24 hr) was 2 and the “Number of survival” value ([3]; 70 mg/kg oral, 48 hr) was 0. The “Number of survival” value ([3]; 200 mg/kg oral, 18 hr) was 11, the “Number of survival” value ([3]; 200 mg/kg oral, 20 hr) was 9 and the “Number of survival” value ([3]; 200 mg/kg oral, 22 hr) was 7. The “Number of survival” value ([3]; 200 mg/kg oral, 24 hr) was 7, the “Number of survival” value ([3]; 200 mg/kg oral, 48 hr) was 5 and the “protective action on the death (endotoxin shock)” value ([3]; oral, mice, compound (I) at 200 mg/kg) was “no such effect”. For the same molecule, the pA2 value [4] was 8.31.
